A word on the EC50: it is the concentration at which the effect is half-maximal. Broadly, the Emax is the maximal effect, on the per cent scale that the assay sets.

From patent publication US20240208992A1, “MACROCYCLES AS CFTR MODULATORS” (Idorsia Pharmaceuticals Ltd, priority 2021, published 2024) come the findings set out here.

The target of this test is human F508del-CFTR (Homo sapiens, UniProt P13569, DEL508-508). Description: F508del-CFTR cell surface expression (corrector activity), DiscoveRx ß-galactosidase complementation chemiluminescence assay in recombinant U2OS cell line.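 On all read-outs here: U2OS cells co-expressing ProLink-tagged F508del-CFTR and a membrane-anchored enzyme acceptor, where more surface CFTR restores β-galactosidase activity measured by chemiluminescence.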 Particulars: U2OS cell line, 16h compound incubation; for EC50: EC50, F508del-CFTR cell surface expression, geomean values; for Emax: U2OS, in relation to the Emax of the corrector lumacaftor (=100%), arithmetic mean values.

The structures appear in SMILES notation.

human F508del-CFTR, sequence (P13569 with tags, fused parts or gaps DEL508-508): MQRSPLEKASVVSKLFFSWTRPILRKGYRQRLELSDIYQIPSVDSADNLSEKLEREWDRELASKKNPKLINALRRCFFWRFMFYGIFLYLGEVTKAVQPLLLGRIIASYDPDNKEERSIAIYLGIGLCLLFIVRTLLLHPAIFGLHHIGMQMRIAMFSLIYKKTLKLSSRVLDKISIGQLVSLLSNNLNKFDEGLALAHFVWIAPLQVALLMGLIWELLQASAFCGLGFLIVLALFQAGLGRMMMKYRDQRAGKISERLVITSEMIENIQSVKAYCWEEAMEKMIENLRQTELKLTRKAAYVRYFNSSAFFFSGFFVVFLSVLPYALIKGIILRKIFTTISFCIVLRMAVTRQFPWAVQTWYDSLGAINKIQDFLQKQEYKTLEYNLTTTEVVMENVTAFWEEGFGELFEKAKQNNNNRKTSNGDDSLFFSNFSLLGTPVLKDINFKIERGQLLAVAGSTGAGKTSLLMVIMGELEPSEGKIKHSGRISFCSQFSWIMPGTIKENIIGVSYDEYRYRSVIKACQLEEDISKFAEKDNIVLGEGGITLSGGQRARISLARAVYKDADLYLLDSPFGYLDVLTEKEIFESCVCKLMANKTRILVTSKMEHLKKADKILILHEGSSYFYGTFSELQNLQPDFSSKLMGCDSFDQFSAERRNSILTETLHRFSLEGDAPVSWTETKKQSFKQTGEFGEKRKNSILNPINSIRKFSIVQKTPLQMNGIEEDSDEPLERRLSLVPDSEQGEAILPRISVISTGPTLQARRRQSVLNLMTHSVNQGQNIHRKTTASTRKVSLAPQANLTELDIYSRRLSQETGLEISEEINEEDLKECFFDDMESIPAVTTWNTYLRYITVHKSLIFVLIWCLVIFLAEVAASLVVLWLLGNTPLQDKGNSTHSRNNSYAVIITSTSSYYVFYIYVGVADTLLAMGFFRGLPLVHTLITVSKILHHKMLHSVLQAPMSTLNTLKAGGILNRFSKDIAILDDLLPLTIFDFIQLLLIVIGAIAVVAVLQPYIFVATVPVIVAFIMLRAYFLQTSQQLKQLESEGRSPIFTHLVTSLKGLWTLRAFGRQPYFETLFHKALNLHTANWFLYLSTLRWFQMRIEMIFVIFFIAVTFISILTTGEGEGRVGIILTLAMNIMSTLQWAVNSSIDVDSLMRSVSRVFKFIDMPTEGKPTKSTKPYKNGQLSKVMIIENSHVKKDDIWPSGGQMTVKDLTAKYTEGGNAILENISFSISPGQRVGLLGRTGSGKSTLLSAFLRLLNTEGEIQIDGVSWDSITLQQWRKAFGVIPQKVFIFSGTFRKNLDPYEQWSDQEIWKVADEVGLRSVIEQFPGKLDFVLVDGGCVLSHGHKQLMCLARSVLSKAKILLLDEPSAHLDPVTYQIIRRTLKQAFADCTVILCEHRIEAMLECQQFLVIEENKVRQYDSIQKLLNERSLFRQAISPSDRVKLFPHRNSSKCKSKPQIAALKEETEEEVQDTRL

Regarding `COc1ccc(CCNC(=O)[C@@H]2CC(=O)N(C)[C@@H](CC(C)C)C(=O)N3CCCC[C@@H]3C(=O)N[C@H](Cc3ccccc3)COc3cnc4ccccc4c3C(=O)N2)cc1C` [Example 95, (9S,13S,19aR,22R)-22-benzyl-13-isobutyl-N-(4-methoxy-3-methylphenethyl)-12-methyl-7,11,14,20-tetraoxo-7,8,9,10,11,12,13,14,17,18,19,19a,20,21,22,23-hexadecahydro-16H-pyrido[2′,1′:6,7][1]oxa[4,7,10,14]tetraazacycloheptadecino[17,16-c]quinoline-9-carboxamide], the 50% effective concentration (EC50) stood at 250 nM and the maximum response (Emax) turned out to be 178%.
For `Cc1cccc(CCNC(=O)[C@@H]2CC(=O)N(C)[C@@H](CC(C)C)C(=O)N3CCCC[C@@H]3C(=O)N[C@H](Cc3ccccc3)COc3cnc4ccccc4c3C(=O)N2)c1` [Example 96, (9S,13S,19aR,22R)-22-benzyl-13-isobutyl-12-methyl-N-(3-methylphenethyl)-7,11,14,20-tetraoxo-7,8,9,10,11,12,13,14,17,18,19,19a,20,21,22,23-hexadecahydro-16H-pyrido[2′,1′:6,7][1]oxa[4,7,10,14]tetraazacycloheptadecino[17,16-c]quinoline-9-carboxamide], in that order: 425 nM and 206%.
Regarding `CC(C)C[C@H]1C(=O)N2CCCC[C@@H]2C(=O)N[C@H](Cc2ccccc2)COc2cnc3ccccc3c2C(=O)N[C@H](C(=O)NCCc2cccc(F)c2F)CC(=O)N1C` [Example 97, (9S,13S,19aR,22R)-22-benzyl-N-(2,3-difluorophenethyl)-13-isobutyl-12-methyl-7,11,14,20-tetraoxo-7,8,9,10,11,12,13,14,17,18,19,19a,20,21,22,23-hexadecahydro-16H-pyrido[2′,1′:6,7][1]oxa[4,7,10,14]tetraazacycloheptadecino[17,16-c]quinoline-9-carboxamide], the EC50 was 146 nM and the maximal effect (Emax) worked out at 285%.
For `Cc1cc(CCNC(=O)[C@@H]2CC(=O)N(C)[C@@H](CC(C)C)C(=O)N3CCCC[C@@H]3C(=O)N[C@H](Cc3ccccc3)COc3cnc4ccccc4c3C(=O)N2)no1` [Example 98, (9S,13S,19aR,22R)-22-benzyl-13-isobutyl-12-methyl-N-(2-(5-methylisoxazol-3-yl)ethyl)-7,11,14,20-], in that order: 311 nM and 326%.
In the same order, the values of `CC(C)C[C@H]1C(=O)N2CCCC[C@@H]2C(=O)N[C@H](Cc2ccccc2)COc2cnc3ccccc3c2C(=O)N[C@H](C(=O)NCCc2c(F)cc(Br)cc2F)CC(=O)N1C` [Example 99, (9S,13S,19aR,22R)-22-benzyl-N-(4-bromo-2,6-difluorophenethyl)-13-isobutyl-12-methyl-7,11,14,20-tetraoxo-7,8,9,10,11,12,13,14,17,18,19,19a,20,21,22,23-hexadecahydro-16H-pyrido[2′,11:6,7][1]oxa[4,7,10,14]tetraazacycloheptadecino[17,16-c]quinoline-9-carboxamide] are 205 nM and 254%.
In the same order, the values of `COc1ccc(CCNC(=O)[C@@H]2CC(=O)N(C)[C@@H](CC(C)C)C(=O)N3CCCC[C@@H]3C(=O)N[C@H](Cc3ccccc3)COc3cnc4ccccc4c3C(=O)N2)cc1F` [Example 100, (9S,13S,19aR,22R)-22-benzyl-N-(3-fluoro-4-methoxyphenethyl)-13-isobutyl-12-methyl-7,11,14,20-tetraoxo-7,8,9,10,11,12,13,14,17,18,19,19a,20,21,22,23-hexadecahydro-16H-pyrido[2′,11:6,7][1]oxa[4,7,10,14]tetraazacycloheptadecino[17,16-c]quinoline-9-carboxamide] are 184 nM and 273%.
Consider `CC(C)C[C@H]1C(=O)N(C)CC(=O)N[C@H](Cc2ccccc2)COc2cc3c(cc2C(=O)N[C@H](C(=O)NCCc2ccc4c(c2)OCCCO4)CC(=O)N1C)OCO3` [Example 101, (7R,13S,17S)-7-benzyl-N-(2-(3,4-dihydro-2H-benzo[b][1,4]dioxepin-7-yl)ethyl)-13-isobutyl-11,14-dimethyl-9,12,15,19-tetraoxo-6,7,8,9,10,11,12,13,14,15,16,17,18,19-tetradecahydro-[1,3]dioxolo[4′,5′:4,5]benzo[1,2-p][1]oxa[4,7,10,14]tetraazacycloheptadecine-17-carboxamide], for which the 50% effective concentration (EC50) turned out to be 201 nM and the Emax came to 163%.
With `Cc1ccc(F)c(CCNC(=O)[C@@H]2CC(=O)N(C)[C@@H](CC(C)C)C(=O)N3CCCC[C@@H]3C(=O)N[C@H](Cc3ccccc3)COc3cnc4ccccc4c3C(=O)N2)c1F` [Example 102, (9S,13S,19aR,22R)-22-benzyl-N-(2,6-difluoro-3-methylphenethyl)-13-isobutyl-12-methyl-7,11,14,20-tetraoxo-7,8,9,10,11,12,13,14,17,18,19,19a,20,21,22,23-hexadecahydro-16H-pyrido[2′,11:6,7][1]oxa[4,7,10,14]tetraazacycloheptadecino[17,16-c]quinoline-9-carboxamide], the half-maximal effective concentration (EC50) was 225 nM and the Emax amounted to 332%.
On to `CC(C)C[C@H]1C(=O)N2CCCC[C@@H]2C(=O)N[C@H](Cc2ccccc2)COc2cnc3ccccc3c2C(=O)N[C@H](C(=O)NCCc2ccns2)CC(=O)N1C` [Example 103, (9S,13S,19aR,22R)-22-benzyl-13-isobutyl-N-(2-(isothiazol-5-yl)ethyl)-12-methyl-7,11,14,20-tetraoxo-7,8,9,10,11,12,13,14,17,18,19,19a,20,21,22,23-hexadecahydro-16H-pyrido[2′,1′:6,7][1]oxa[4,7,10,14]tetraazacycloheptadecino[17,16-c]quinoline-9-carboxamide], for which the EC50 stood at 499 nM and the Emax is 256%.
For `Cc1cccc(F)c1CCNC(=O)[C@@H]1CC(=O)N(C)[C@@H](CC(C)C)C(=O)N2CCCC[C@@H]2C(=O)N[C@H](Cc2ccccc2)COc2cnc3ccccc3c2C(=O)N1` [Example 104, (9S,13S,19aR,22R)-22-benzyl-N-(2-fluoro-6-methylphenethyl)-13-isobutyl-12-methyl-7,11,14,20-tetraoxo-7,8,9,10,11,12,13,14,17,18,19,19a,20,21,22,23-hexadecahydro-16H-pyrido[2′,11:6,7][1]oxa[4,7,10,14]tetraazacycloheptadecino[17,16-c]quinoline-9-carboxamide], in that order: 211 nM and 204%.
For the compound `CC(C)C[C@H]1C(=O)N2CCCC[C@@H]2C(=O)N[C@H](Cc2ccccc2)COc2cnc3ccccc3c2C(=O)N[C@H](C(=O)NCCc2cc(C3CC3)on2)CC(=O)N1C` [Example 105, (9S,13S,19aR,22R)-22-benzyl-N-(2-(5-cyclopropylisoxazol-3-yl)ethyl)-13-isobutyl-12-methyl-7,11,14,20-tetraoxo-7,8,9,10,11,12,13,14,17,18,19,19a,20,21,22,23-hexadecahydro-16H-pyrido[2′,1′:6,7][1]oxa[4,7,10,14]tetraazacycloheptadecino[17,16-c]quinoline-9-carboxamide], the concentration giving a half-maximal response (EC50) came to 173 nM and the maximal effect (Emax) came to 351%.
In the same order, the values of `CC(C)C[C@H]1C(=O)N2CCOC[C@@H]2C(=O)N[C@H](Cc2ccccc2)COc2cnc3ccccc3c2C(=O)N[C@H](C(=O)NCCc2cc(C3CC3)on2)CC(=O)N1C` [Example 106, (9S,13S,19aR,22R)-22-benzyl-N-(2-(5-cyclopropylisoxazol-3-yl)ethyl)-13-isobutyl-12-methyl-7,11,14,20-tetraoxo-7,8,9,10,11,12,13,14,16,17,19,19a,20,21,22,23-hexadecahydro-[1,4]oxazino[3′,4′:6,7][1]oxa[4,7,10,14]tetraazacycloheptadecino[17,16-c]quinoline-9-carboxamide] are 864 nM and 308%.
For `CC(C)C[C@H]1C(=O)N2CCOC[C@@H]2C(=O)N[C@H](Cc2ccccc2)COc2cnc3ccccc3c2C(=O)N[C@H](C(=O)NCCc2cc(C(C)(C)C)on2)CC(=O)N1C` [Example 107, (9S,13S,19aR,22R)-22-benzyl-N-(2-(5-(tert-butyl)isoxazol-3-yl)ethyl)-13-isobutyl-12-methyl-7,11,14,20-tetraoxo-7,8,9,10,11,12,13,14,16,17,19,19a,20,21,22,23-hexadecahydro-[1,4]oxazino[3′,4′:6,7][1]oxa[4,7,10,14]tetraazacycloheptadecino[17,16-c]quinoline-9-carboxamide], in that order: 794 nM and 257%.
`CC(C)C[C@H]1C(=O)N(C)C2(CC2)C(=O)N[C@H](Cc2ccccc2)COc2cnc3ccccc3c2C(=O)N[C@H](C(=O)NCCc2ccccc2)CC(=O)N1C` [Example 108, (3′S,7′S,13′R)-13′-benzyl-7′-isobutyl-6′,9′-dimethyl-1′,5′,8′,11′-tetraoxo-N-phenethyl-2′,3′,4′,5′,6′,7′,8′,9′,11′,12′,13′,14′-dodecahydro-1′H-spiro[cyclopropane-1,10′-[1]oxa[4,7,10,14]tetraazacycloheptadecino[17,16-c]quinoline]-3′-carboxamide]: the EC50 came to 581 nM and the Emax came out at 222%.
In the same order, the values of `COc1cc(CCNC(=O)[C@@H]2CC(=O)N(C)[C@@H](CC(C)C)C(=O)N(C)C3(CC3)C(=O)N[C@H](Cc3ccccc3)COc3cnc4ccccc4c3C(=O)N2)cc(OC)c1` [Example 109, (3′S,7′S,13′R)-13′-benzyl-N-(3,5-dimethoxyphenethyl)-7′-isobutyl-6′,9′-dimethyl-1′,5′,8′,11′-tetraoxo-2′,3′,4′,5′,6′,7′,8′,9′,11′,12′,13′,14′-dodecahydro-1′H-spiro[cyclopropane-1,10′-[1]oxa[4,7,10,14]tetraazacycloheptadecino[17,16-c]quinoline]-3′-carboxamide] are 231 nM and 321%.
